Test results as given in patent publication US20080124338A1, “METHODS FOR TREATMENT OF INFLAMMATORY DISEASE AND CHLAMYDIA INFECTIOUS DISEASE” (The Scripps Research Institute, priority 2006, published 2008).
Entries after “also recorded” stand apart in the source; their conditions may differ. Peptide text beside a SMILES is read from it. * marks the point of attachment. Cbz = O=C(OCc1ccccc1)*

Columns and labels:
[1] = test system: Chlamydia trachomatis LGV2; assay: p65 cleavage in Chlamydia-infected cells treated with antibiotics (immunoblotting); assay type: cell-based; details: rifampin 0.1 μg/ml, chloramphenicol 60 μg/ml, penicillin G 100 μg/ml, FIG. 1E
Procedure: A. Hela 229 cells were infected with Chlamydia trachomatis LGV2 at 1 IFU/cell for varying times, or with invasive (wt) or invasion-defective (mut) Salmonella typhimurium for 2 hr. IκBα expression and degradation were detected by immunoblotting analyses. TNFα (10 ng/ml) was used as a positive control. B. Hela 229 cells were infected with LGV2 at 1 IFU/cell for 2, 16 and 24 hr. The cytosolic (C) and nuclear (N) fractions were separated and redistribution of p65/RelA was detected by immunoblotting analysis. The expression of lamin A and β-tubulin were used as loading controls for nuclear and cytosolic fractions, respectively. C. Whole cell lysates from Chlamydia-infected cells were separated by SDS-PAGE and cleavage of p65 was detected with an N- or C-terminus specific antibody against p65. D. Selective cleavage of p65 by Chlamydia infection. The expression of NF-κB pathway signaling molecules in Chlamydia-infected and non-infected control cells was determined by immunoblotting analysis. E. Inhibition of Chlamydia growth blocks p65 cleavage. The infected cells were treated with rifampin (Rif, 0.1 μg/ml) or chloramphenicol (Chl, 60 μg/ml), reagents that inhibit Chlamydia growth by blocking transcription or translation, respectively. […] The expression of β-tubulin or Erk2/MAPK was used as loading controls. All experiments were performed at least 3 times.
Infection assays. […]

IκBα = IκBα degradation in Hela 229 cells (immunoblotting); assay type: cell-based; details: TNFα 10 ng/ml, positive control, FIG. 1A
Excerpt: The host inflammatory response to bacterial infection or proinflammatory cytokine and LPS stimulation is mediated by NF-κB activity, which is regulated by the selective degradation of IκB proteins. Karin and Ben-Neriah, Annu. Rev. Immunol 18: 621, 2000; Richmond, Nat. Rev. Immunol 2: 664, 2002. To investigate whether Chlamydia targeted the NF-κB pathway to interfere with host inflammatory response, we first examined the integrity of IκBα, a regulatory molecule of NF-κB activation. To this end, monolayers of Hela 229 cells were infected with C. trachomatis LGV2 at 1 inclusion forming unit per cell (1 IFU/cell) for varying time points. Lad et al., J Immunol 174: 7186, 2005. […]
A. Hela 229 cells were infected with Chlamydia trachomatis LGV2 at 1 IFU/cell for varying times, or with invasive (wt) or invasion-defective (mut) Salmonella typhimurium for 2 hr. IκBα expression and degradation were detected by immunoblotting analyses. […] The cytosolic (C) and nuclear (N) fractions were separated and redistribution of p65/RelA was detected by immunoblotting analysis. […] Whole cell lysates from Chlamydia-infected cells were separated by SDS-PAGE and cleavage of p65 was detected with an N- or C-terminus specific antibody against p65. […] The expression of NF-κB pathway signaling molecules in Chlamydia-infected and non-infected control cells was determined by immunoblotting analysis. […]

proteasomal degradation = assay: Detection of p22 cleavage product in cells treated with MG-132; assay type: cell-based; details: Chlamydia-infected cells treated with MG-132; data not shown
Excerpt: The cleavage of p65 was confirmed by the detection of a 22 kDa fragment with a C-terminus specific antibody against p65 (FIG. 1C). […] The 40 kDa fragment was further characterized with MALDI proteomics. Thus, 293T cells, transfected for GST-p65 protein expression, were infected with LGV2 for 28 hr. After purification, the cleavage product was subjected to trypsin digestion followed by MALDI TOF identification. Seven proteolytic fragments were detected, which covered the N-terminal GST tag and the RHD region of p65 (supplemental data).
Western blots. Except as noted, extracts were prepared by lysis of cells with a buffer containing 143 mM NaCl, 50 mM Tris-HCl (pH 7.5), 1 mM DTT, 1% NP-40, 0.1% SDS and protease inhibitors (Roche). Soluble proteins were separated by SDS-PAGE or Tris-Glycine gels (Novex). Blots were probed with specific antibodies. Horseradish peroxidase conjugated secondary antibodies (Sigma) and ECL reagent kit (Pierce) were used for detection.

[2] = test system: p65 cleavage activity of Chlamydia; assay: In vitro p65 cleavage assay with solubilized chlamydial EB proteins; assay type: biochemical; details: 37° C. for 60 min; inhibitor added 30 min prior to p65; EDTA 5 mM, lactacystin 10 μM; FIG. 2C
Procedure: Purified Chlamydia EB was solubilized with a buffer containing 1% NP-40. […] The graph represents the rates of p65 disappearance and p40 appearance in the same reaction. C. […] In parallel experiments, protease inhibitors were included in the in vitro p65 cleavage assay. […] Lane 4: Roche protease inhibitor cocktail at 10×; Lane 5: heat-inactivated EB; Lane 6: EDTA at 5 mM; Lane 7: Lactacystin at 10 μM; Lane 8: MG132 at 20 μM; Lane 9: TPCK at 20 μM; and Lane 10: TLCK at 20 μM. The presence of the chlamydial major outer membrane protein (MOMP) was used as a measure of EB protein input (lower panel).
In vitro p65 cleavage assays. Gradient purified chlamydial EB were solubilized with Tris-buffered saline, supplemented with 1% NP-40. The soluble proteins were collected and used for p65 cleavage assays. […] For inhibition assays, an inhibitor was added 30 min prior to the addition of p65 protein. All assays were performed at 37° C. for 60 min or as otherwise indicated.

NF-κB [3] = assay: pIL8-luciferase reporter gene assay in 293T cells; assay type: cell-based, human; details: TNFα 10 ng/ml, FIG. 3C, 3D
Procedure: (§1) We therefore investigated whether expression of CT441 interfered with NF-κB signal transduction. To this end, 293T cells were transfected with pIL8-luciferase (Kim et al., Cancer Res 65: 8784, 2005) and a plasmid for CT441 expression. The cells were then treated with TNFα to induce luciferase expression. In parallel experiments, we also included a mouse cell line for control purposes since murine p65 is resistant to cleavage by Chlamydia infection. […] The p40 cleavage product (amino acid residues 1-351) was then investigated for its inhibitory effect on TNFα-induced NF-κB activation.
(§2) A. Putative chlamydial proteases were expressed as N-terminal HA-tagged proteins in 293T cells and screened for their ability to cleave p65. […] 441, 494, 823 and 858 represent chlamydial CT441, CT494, CT823, and CT858, respectively. […] Monolayers of 293T or NIH3T3 cells were co-transfected with pIL8-Luc (Kim et al., Cancer Res 65: 8784, 2005) and a plasmid for the expression of chlamydial protease CT441 or the p40 cleavage product of p65. pSV40-RL was included as an internal control for transfection reactions. The cells were treated with TNFα (10 ng/ml) 18 hr post transfection to induce luciferase expression. Luciferase activities were determined with a Dual-Glo reagent kit (Promega) 18 hr after TNFα treatment. The ratio of firefly and Renilla luciferase activities (FL/RL) was plotted. […]

p65 = assay: Expression of putative chlamydial proteases in 293T cells, cleavage of endogenous p65 (Western blot); assay type: cell-based, human; details: N-terminal HA-tagged proteins expressed in 293T cells; FIG. 3A, 3B
Excerpt: The chlamydial genome encodes 16 proteases (Stephens et al., Science 282: 754, 1998), including four putative proteases that contain a leader sequence for periplasmic secretion and potential translocation by the chlamydial type III secretory system. The mature peptides of those putative proteases were therefore screened for their ability to cleave p65 after expression in 293T cells. […] CT441 encodes a tail-specific protease (Tsp) that is well conserved among Chlamydia species.
as §2, with “plotted. All transfections were performed in duplicate and the data are presented as means +/− error.” for “plotted.”

NF-κB [4] = assay: pIL8-luciferase reporter gene assay in NIH3T3 cells; assay type: cell-based, mouse; details: TNFα 10 ng/ml, FIG. 3C
Procedure: as §1, §2

In the case of CO[C@H]1/C=C/O[C@@]2(C)Oc3c(C)c(O)c4c(O)c(c(/C=N/N5CCN(C)CC5)c(O)c4c3C2=O)NC(=O)/C(C)=C\C=C\[C@H](C)[C@H](O)[C@@H](C)[C@@H](O)[C@@H](C)[C@H](OC(C)=O)[C@@H]1C [rifampin], the “Chlamydia cleavage of p65” value [1] is reported as “blocked”.

In the case of O=C(N[C@H](CO)[C@H](O)c1ccc([N+](=O)[O-])cc1)C(Cl)Cl [chloramphenicol], the “Chlamydia cleavage of p65” value [1] is reported as “blocked”.

With TNFα the IκBα degradation (IκBα) was “caused IκBα degradation”.

With CC(C)C[C@@H](C=O)NC(=O)[C@H](CC(C)C)NC(=O)[C@H](CC(C)C)NC(=O)OCc1ccccc1 [MG-132] (Cbz-Leu-Leu-Leu-aldehyde) the “detection of p22” value (proteasomal degradation) was “Enhanced detection of p22”.

For CC(=O)N[C@@H](CSC(=O)[C@]1([C@@H](O)C(C)C)NC(=O)[C@H](C)[C@@H]1O)C(=O)O [lactacystin], the “p65 cleavage activity of Chlamydia (solubilized EB proteins)” value [2] was “inhibited p65 cleavage activity”.

B1: p40: N-terminal p40 cleavage product of p65/RelA, amino acid residues 1-351 of SEQ ID NO:1 (protein, listed as Homo Sapiens)
chain: MDELFPLIFPAEPAQASGPYVEIIEQPKQRGMRFRYKCEGRSAGSIPGERSTDTTKTHPTIKINGYTGPGTVRISLVTKDPPHRPHPHELVGKDCRDGFYEAELCPDRCIHSFQNLGIQCVKKRDLEQAISQRIQTNNNPFQVPIEEQRGDYDLNAVRLCFQVTVRDPSGRPLRLPPVLPHPIFDNRAPNTAELKICRVNRNSGSCLGGDEIFLLCDKVQKEDIEVYFTGPGWEARGSFSQADVHRQVAIVFRTPPYADPSLQAPVRVSMQLRRPSDRELSEPMEFQYLPDTDDRHRIEEKRKRTYETFKSIMKKSPFSGPTDPRPPPRRIAVPSRSSASVPKPAPQPYPF
modifications: Myc tag
With B1 the “TNFα-induced luciferase activity (NF-κB activation)” value (NF-κB [3]) was “inhibited luciferase expression; also recorded: inhibited NF-κB activity”.

B2: CT441: Chlamydia trachomatis tail-specific protease, SEQ ID NO:2 (protein, listed as Chlamydia trachomatis)
chain: MMRFARFCLLVLTLFPQLAFSAEPLRRQDVRKTVDKLVEHHIDTQQISPYILSRSLEDYVRSFDSHKAYLTQDEVFSHAFSEEATRPLFKQYQEDNFSSFKELDTCIQQSISRAREWRSSWLTDSIRVIQDAMSHTIEKKPSAWASSIEEVKQRQYDLLLSYASIYLEDAAKNRYQGKEHALVKLCIRQIENHENPYIGINDHGYRMSPEEEANSFHVRIIKSIAHSLDAHTAYFSQEEALSMRAQLEKGMCGIGVVLKEDIDGVVVKEVLAGGPADKTGSLRVGDIIYRVNGKNIENTPFPGVLDSLRGSPGSSVTLDIHRQNNDHVIQLRREKILLDSRRVDVSYEPYGNGIIGKITLHSFYEGENQVSSEQDLRKAIRELQEKNLLGLVLDIRENTGGFLSQAIKVSGLFLTNGVVVVSRYADGSVKRYRTISPQKFYDGPLAVLVSKSSASAAEIVAQTLQDYGVALIVGDQQTYGKGTIQHQTITGSNSQEDFFKVTVGRYYSPSGKSTQLEGVKSDIVIPSRYAEDKLGERFLEYALPADQYENVINDNLGDLDINIRPWFQKYYSPHLQKPELVWREMLPQLAHNSQERLEKNKNFEIFVQHLKKTNKQDRSFGSNDLQMEESVNIVKDMILLKSIS
In the case of B2, the “p65 cleavage after expression in 293T cells” value (p65) is reported as “caused p65 cleavage; also recorded: resulted in selective cleavage of p65”, the “TNFα-induced luciferase activity (NF-κB activation)” value (NF-κB [3]) is reported as “inhibited TNFα-induced luciferase activity; also recorded: inhibited NF-κB activity” and the TNFα-induced luciferase expression (NF-κB [4]) is reported as “showed no effect”.

B3: CT858: chlamydial protease detected during an infection but not in purified EB (protein)
chain: MKMNRIWLLLLTFSSAIHSPVQGESLVCKNALQDLSFLEHLLQVKYAPKTWKEQYLGWDLVQSSVSAQQKLRTQENPSTSFCQQVLADFIGGLNDFHAGVTFFAIESAYLPYTVQKSSDGRFYFVDIMTFSSEIRVGDELLEVDGAPVQDVLATLYGSNHKGTAAEESAALRTLFSRMASLGHKVPSGRTTLKIRRPFGTTREVRVKWRYVPEGVGDLATIAPSIRAPQLQKSMRSFFPKKDDAFHRSSSLFYSPMVPHFWAELRNHYATSGLKSGYNIGSTDGFLPVIGPVIWESEGLFRAYISSVTDGDGKSHKVGFLRIPTYSWQDMEDFDPSGPPPWEEFAKIIQVFSSNTEALIIDQTNNPGGSVLYLYALLSMLTDRPLELPKHRMILTQDEVVDALDWLTLLENVDTNVESRLALGDNMEGYTVDLQVAEYLKSFGRQVLNCWSKGDIELSTPIPLFGFEKIHPHPRVQYSKPICVLINEQDFSCADFFPVVLKDNDRALIVGTRTAGAGGFVFNVQFPNRTGIKTCSLTGSLAVREHGAFIENIGVEPHIDLPFTANDIRYKGYSEYLDKVKKLVCQLINNDGTIILAEDGSF
modifications: left off: small tags and cut ends
notes: chlamydial protease detected during an infection but not in purified EB
In the case of B3, the “p65 cleavage after expression in 293T cells” value (p65) is reported as “did not exhibit p65 cleavage activity”.
